Our source for the IC50, EC50 and AC50 values is ChEMBL document CHEMBL1201862, “PubChem BioAssay data set” (2004).

Activity calls are given as the source filed them.

Assay [1] has as its target T1, SUMO-activating enzyme (Homo sapiens, UniProt Q9UBT2). Kind of assay: blockers of SAE1/SAE2–UBC9 SUMO transfer – biochemical, HTRF, uHTS, primary screen (AID 2006). The assay is classed as protein-complex assay. Background: TR-FRET usually uses a lanthanide donor and a delayed reading to cut background.
The target of assay [2] is T1, SUMO-activating enzyme. Kind of assay: blockers of UBC9-mediated SUMO conjugation – biochemical, AlphaScreen, SUMOylation inhibitor project, confirmation (AID 2018). The class given is functional.
Assay [3] deals with Induced myeloid leukemia cell differentiation protein Mcl-1 (Homo sapiens, UniProt Q07820). The assay is classed as functional.
The target of assay [4] is T2, RNA-binding protein pos-1 (Caenorhabditis elegans, UniProt G5EF15).
T2 sequence (G5EF15 whole entry): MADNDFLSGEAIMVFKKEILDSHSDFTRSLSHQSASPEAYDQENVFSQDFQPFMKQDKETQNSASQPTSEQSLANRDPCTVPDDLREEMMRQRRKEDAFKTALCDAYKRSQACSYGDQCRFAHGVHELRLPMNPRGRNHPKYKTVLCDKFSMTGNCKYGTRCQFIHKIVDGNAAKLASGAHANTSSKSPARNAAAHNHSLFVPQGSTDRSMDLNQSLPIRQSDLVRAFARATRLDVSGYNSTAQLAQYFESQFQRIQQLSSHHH
Kind of assay: disruptors of C. elegans POS-1 RNA interaction – biochemical, fluorescence polarization, dose response (AID 1964).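 Note: purified POS-1 fused to maltose binding protein made in E. coli; potency of compounds blocking POS-1 binding to fluorescent RNA.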 A general note: In fluorescence polarisation assays a small probe gives low polarisation when free and higher when bound to something large.

Assay [5] concerns the target T3, Zinc finger protein mex-5 (Caenorhabditis elegans, UniProt Q9XUB2).
T3 sequence (Q9XUB2 whole entry): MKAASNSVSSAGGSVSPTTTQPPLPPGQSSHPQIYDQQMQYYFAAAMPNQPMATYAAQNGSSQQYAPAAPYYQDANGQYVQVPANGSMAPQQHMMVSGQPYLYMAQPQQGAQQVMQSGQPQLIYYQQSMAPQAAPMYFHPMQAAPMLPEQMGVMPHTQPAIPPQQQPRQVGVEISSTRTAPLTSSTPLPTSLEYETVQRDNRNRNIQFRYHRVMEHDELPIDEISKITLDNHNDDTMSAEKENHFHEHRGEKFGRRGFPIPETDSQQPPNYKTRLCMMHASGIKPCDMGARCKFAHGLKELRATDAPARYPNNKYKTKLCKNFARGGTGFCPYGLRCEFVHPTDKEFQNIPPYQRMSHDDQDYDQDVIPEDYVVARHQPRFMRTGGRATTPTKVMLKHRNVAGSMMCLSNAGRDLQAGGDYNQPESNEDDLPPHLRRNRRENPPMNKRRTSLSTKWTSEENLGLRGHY
Kind of assay: potency of MEX-5 RNA-binding blockers – biochemical, C. elegans, fluorescence polarization, dose response (AID 1960).

Assay [6] addresses T4, Heat shock factor protein 1 (Mus musculus, UniProt P38532).
T4 sequence (P38532 whole entry): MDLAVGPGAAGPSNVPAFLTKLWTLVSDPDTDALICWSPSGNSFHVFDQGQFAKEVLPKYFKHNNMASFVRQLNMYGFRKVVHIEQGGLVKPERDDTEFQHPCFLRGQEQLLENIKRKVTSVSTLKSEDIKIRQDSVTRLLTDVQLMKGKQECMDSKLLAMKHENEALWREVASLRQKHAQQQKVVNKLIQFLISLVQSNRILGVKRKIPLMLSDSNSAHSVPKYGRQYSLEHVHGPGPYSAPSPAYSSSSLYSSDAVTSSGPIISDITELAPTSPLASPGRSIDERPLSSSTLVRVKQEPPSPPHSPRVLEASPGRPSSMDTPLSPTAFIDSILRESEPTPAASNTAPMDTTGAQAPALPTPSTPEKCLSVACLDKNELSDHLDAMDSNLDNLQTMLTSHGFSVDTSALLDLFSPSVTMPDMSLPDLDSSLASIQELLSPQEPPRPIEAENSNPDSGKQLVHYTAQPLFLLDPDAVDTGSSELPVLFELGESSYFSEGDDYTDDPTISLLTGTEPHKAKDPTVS
Kind of assay: enhancement of HSF1-driven luciferase signal – cell-based, NIH3T3, luminescence, dose retest, confirmation (AID 435004).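 Note: stress induced by proteasome inhibitor MG132 added 30 min after compound; luciferase reporter driven by HSF1 response element in NIH3T3 cells; actives raise luminescence as potentiators of the MG132 stress response.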 The class given is functional.

Assay [7] deals with T5, Ubiquitin-conjugating enzyme E2 N (Homo sapiens, UniProt P61088).
T5 sequence (P61088 whole entry): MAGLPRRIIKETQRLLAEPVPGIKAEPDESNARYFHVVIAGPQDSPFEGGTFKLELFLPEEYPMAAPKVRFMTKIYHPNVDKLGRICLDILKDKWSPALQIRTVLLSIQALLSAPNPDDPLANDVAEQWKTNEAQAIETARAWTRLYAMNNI
The assay is classed as functional.

In assay [8] the target is T5, Ubiquitin-conjugating enzyme E2 N. The class given is functional. The source holds these as a separate data set.
For another assay, the target named is T6, Bcl-2-related protein A1 (Mus musculus, UniProt Q07440).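 Note: confirmatory dose–response counterscreen on Bfl-1, used to check hits from a UBC13 polyubiquitin inhibitor campaign.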
T6 sequence (Q07440 whole entry): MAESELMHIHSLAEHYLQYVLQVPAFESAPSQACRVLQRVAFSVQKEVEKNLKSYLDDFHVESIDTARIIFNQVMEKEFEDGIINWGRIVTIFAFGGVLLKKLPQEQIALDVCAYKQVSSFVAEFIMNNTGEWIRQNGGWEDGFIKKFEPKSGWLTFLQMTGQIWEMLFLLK
The assay is classed as functional.

A further assay concerns the target Cytochrome P450 2D6 (Homo sapiens, UniProt P10635).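 Note: CYP2D6 member of a cytochrome P450 panel assay.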
A further assay deals with Cytochrome P450 3A4 (Homo sapiens, UniProt P08684).
In assay [9] the target is T7, Short transient receptor potential channel 4 (Mus musculus, UniProt Q9QUQ5).
T7 sequence (Q9QUQ5 whole entry): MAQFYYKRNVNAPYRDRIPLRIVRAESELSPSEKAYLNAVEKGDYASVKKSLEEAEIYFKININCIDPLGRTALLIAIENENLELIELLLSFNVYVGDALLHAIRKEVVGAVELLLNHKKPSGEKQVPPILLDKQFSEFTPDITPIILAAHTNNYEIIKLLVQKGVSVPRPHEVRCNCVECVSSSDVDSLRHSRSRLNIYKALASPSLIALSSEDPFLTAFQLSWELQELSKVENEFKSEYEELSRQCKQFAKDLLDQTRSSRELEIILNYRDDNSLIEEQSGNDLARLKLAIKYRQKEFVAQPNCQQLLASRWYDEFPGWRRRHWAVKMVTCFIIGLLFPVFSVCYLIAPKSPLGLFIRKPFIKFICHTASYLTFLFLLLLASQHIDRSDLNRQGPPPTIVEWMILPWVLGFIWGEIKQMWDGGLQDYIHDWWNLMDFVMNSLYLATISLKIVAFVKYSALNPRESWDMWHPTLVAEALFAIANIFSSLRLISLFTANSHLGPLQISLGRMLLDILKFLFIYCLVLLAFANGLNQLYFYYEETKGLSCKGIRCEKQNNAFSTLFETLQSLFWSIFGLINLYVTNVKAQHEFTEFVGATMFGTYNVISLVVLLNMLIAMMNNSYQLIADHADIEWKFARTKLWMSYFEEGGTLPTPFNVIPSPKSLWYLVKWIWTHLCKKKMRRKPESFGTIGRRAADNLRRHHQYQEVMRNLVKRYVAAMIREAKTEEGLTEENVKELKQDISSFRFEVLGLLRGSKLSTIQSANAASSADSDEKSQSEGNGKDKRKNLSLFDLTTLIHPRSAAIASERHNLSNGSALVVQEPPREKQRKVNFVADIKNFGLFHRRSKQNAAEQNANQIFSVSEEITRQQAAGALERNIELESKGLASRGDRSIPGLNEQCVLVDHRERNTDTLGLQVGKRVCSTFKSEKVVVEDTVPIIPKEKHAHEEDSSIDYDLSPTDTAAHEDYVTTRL
Kind of assay: block of DAMGO-driven TRPC4 calcium entry – cell-based, HEK293 TRPC4/mu-opioid, Fluo-4 calcium, dose response (AID 434942).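 Note: potency of inhibitors blocking the TRPC4 calcium response.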 The class given is functional.

In assay [10] the target is T8, Calpain-2 catalytic subunit (Sus scrofa, UniProt P43367).
T8 sequence (P43367 whole entry): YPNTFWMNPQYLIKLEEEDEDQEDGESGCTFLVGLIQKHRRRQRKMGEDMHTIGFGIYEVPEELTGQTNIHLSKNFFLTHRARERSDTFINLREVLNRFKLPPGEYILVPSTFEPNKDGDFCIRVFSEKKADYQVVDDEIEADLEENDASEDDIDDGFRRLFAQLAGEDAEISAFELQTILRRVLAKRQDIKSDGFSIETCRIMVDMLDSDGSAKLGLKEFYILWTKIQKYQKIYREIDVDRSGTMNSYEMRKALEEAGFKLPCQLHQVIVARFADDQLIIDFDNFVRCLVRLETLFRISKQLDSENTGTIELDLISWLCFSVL
Kind of assay: m-calpain protease blockers, concentration series – biochemical, fluorogenic peptide substrate, dose response (AID 1420). The assay is classed as functional.

The target of the next assay is Beta-galactosidase (Escherichia coli, UniProt Q8VNN2). The assay is described as follows: PubChem AID 485352. The class given is functional.
Assay [11] has as its target T9, Type-1 angiotensin II receptor (Homo sapiens, UniProt P30556).
T9 sequence (P30556 whole entry): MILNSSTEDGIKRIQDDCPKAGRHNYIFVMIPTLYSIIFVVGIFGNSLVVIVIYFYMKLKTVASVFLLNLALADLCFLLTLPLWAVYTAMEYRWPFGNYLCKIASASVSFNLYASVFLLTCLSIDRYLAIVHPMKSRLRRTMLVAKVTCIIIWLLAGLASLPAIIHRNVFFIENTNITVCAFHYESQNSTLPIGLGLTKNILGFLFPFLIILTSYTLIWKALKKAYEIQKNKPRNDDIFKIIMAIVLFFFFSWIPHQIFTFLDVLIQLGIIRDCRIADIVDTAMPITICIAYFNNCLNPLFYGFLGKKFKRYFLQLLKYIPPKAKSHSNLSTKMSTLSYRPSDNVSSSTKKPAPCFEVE
The assay is described as follows: antagonism of angiotensin II type 1 receptor – cell-based, uHTS hits, selectivity assay for APJ receptor antagonist project, dose response (AID 463214).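 Note: antagonist potency against angiotensin II stimulated AT1 response.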 The assay is classed as functional.

For the next assay, the system named is HEK293. The assay is described as follows: HEK293T cell viability loss, resazurin readout – resazurin fluorescence, cytotoxicity control for NF-kB activator project, SAR follow-up (AID 493251). The note with it: Homo sapiens. The assay is classed as functional, cell-based. On the technique in general: The colour change of resazurin is a common sign of viable cells or microbes.

By IC50 is commonly meant the concentration at which inhibition is half-maximal. By EC50 is commonly meant the midpoint of the concentration-response curve. A word on the AC50: it is the concentration at which the activity in the assay is half-maximal.

T1 sequence (Q9UBE0 whole entry): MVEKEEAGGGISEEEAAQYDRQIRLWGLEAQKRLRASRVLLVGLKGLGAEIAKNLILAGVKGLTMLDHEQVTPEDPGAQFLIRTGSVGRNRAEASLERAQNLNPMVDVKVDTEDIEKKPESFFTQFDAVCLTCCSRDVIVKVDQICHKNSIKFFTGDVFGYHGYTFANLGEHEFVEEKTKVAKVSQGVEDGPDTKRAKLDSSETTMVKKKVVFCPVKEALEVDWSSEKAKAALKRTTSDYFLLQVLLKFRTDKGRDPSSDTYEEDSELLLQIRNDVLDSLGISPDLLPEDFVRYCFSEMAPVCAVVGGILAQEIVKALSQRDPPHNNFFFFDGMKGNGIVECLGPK
T1 sequence (Q9UBT2 whole entry): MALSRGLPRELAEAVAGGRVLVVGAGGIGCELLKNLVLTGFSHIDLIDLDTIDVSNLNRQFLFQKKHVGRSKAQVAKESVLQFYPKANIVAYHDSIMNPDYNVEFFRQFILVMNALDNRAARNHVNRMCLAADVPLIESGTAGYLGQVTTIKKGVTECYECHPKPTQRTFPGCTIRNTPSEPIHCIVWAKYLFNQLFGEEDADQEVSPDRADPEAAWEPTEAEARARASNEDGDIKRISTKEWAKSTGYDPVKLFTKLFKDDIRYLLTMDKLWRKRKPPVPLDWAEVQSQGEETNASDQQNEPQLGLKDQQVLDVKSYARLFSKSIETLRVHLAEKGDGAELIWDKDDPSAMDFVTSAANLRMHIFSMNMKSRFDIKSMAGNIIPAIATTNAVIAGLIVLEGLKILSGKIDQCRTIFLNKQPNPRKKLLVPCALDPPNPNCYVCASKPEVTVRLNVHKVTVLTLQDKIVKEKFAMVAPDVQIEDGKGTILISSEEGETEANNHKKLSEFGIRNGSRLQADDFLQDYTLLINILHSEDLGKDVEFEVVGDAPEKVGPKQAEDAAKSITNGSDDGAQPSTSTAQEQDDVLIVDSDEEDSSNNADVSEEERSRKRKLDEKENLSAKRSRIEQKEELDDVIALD
Sequence of Beta-galactosidase (Q8VNN2 whole entry): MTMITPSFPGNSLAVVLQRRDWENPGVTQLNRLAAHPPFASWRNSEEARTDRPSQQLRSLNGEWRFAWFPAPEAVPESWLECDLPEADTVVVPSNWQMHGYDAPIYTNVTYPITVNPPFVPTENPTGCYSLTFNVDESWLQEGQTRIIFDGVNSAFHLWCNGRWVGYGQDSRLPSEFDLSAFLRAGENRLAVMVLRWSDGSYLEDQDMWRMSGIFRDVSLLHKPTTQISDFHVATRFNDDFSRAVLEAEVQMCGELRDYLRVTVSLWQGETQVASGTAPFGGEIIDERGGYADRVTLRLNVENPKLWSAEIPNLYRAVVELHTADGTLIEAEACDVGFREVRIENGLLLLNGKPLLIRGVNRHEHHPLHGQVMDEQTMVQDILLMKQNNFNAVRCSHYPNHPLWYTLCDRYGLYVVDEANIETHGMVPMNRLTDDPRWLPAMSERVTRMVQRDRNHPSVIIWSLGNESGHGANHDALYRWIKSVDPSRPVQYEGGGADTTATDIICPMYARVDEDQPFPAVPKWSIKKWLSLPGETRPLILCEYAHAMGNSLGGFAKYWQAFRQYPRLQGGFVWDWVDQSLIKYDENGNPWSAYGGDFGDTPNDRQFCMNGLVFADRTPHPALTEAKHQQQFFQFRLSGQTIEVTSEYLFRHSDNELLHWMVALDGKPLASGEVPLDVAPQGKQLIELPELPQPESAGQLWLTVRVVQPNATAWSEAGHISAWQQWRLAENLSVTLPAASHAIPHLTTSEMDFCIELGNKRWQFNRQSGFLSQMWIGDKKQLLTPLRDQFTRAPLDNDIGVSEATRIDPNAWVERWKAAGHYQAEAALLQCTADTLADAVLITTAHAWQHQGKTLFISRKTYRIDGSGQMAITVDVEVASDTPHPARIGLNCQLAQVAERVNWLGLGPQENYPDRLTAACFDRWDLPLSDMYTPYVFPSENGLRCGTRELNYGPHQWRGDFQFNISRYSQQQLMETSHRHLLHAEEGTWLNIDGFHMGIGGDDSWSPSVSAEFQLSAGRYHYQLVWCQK
Sequence of Cytochrome P450 2D6 (P10635 whole entry): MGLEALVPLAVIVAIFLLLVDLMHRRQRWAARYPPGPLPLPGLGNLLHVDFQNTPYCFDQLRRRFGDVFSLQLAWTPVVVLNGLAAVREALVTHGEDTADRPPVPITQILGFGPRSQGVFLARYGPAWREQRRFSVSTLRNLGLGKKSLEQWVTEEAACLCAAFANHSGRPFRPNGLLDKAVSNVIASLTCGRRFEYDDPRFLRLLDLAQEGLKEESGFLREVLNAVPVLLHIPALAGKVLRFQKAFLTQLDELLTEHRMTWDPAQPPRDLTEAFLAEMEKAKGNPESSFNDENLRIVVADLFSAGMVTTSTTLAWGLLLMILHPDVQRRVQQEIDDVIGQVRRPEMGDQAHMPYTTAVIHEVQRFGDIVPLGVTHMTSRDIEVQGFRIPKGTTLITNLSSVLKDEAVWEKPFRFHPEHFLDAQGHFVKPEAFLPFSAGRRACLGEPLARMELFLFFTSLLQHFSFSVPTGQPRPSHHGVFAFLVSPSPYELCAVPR
Sequence of Cytochrome P450 3A4 (P08684 whole entry): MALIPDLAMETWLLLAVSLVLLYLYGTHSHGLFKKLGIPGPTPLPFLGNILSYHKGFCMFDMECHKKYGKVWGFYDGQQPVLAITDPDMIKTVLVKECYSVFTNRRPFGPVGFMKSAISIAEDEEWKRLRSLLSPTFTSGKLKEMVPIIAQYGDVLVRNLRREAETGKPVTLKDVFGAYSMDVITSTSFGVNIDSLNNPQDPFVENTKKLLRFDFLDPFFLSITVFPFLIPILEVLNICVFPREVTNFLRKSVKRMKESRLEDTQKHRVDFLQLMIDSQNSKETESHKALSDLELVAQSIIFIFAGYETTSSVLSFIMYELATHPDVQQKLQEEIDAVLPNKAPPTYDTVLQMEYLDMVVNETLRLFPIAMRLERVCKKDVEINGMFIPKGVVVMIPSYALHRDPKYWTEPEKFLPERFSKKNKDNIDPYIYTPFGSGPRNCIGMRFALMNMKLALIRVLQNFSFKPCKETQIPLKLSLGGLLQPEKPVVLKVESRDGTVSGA
Sequence of Induced myeloid leukemia cell differentiation protein Mcl-1 (Q07820 whole entry): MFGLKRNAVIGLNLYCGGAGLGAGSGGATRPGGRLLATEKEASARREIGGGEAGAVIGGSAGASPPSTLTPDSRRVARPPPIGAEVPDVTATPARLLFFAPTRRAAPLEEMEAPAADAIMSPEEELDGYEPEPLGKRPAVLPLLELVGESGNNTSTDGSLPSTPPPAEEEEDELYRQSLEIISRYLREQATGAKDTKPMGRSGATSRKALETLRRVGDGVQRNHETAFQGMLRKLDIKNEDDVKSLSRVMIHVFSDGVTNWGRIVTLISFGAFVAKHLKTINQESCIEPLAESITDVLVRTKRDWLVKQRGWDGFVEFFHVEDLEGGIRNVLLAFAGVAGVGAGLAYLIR

Regarding `CC1=C(C#N)C(=O)NC(=O)/C1=C/c1ccc(-c2ccc(S(N)(=O)=O)cc2)o1`, the IC50 is 25.7 µM (active) at SUMO-activating enzyme [1], 6.48 µM (active) at SUMO-activating enzyme [2] and 1.59 µM (active) in [3]. The 50% effective concentration (EC50) is > 300 µM (inconclusive) in [4] and > 300 µM (not active) in [5].

On to `O=C(CSc1cc(Cl)ccc1Cl)NCC(=O)Nc1ccc(F)c(F)c1F`, for which, in assay [6], the EC50 was > 260 µM (inactive). Further, the 50% inhibitory concentration (IC50) in [7] is 18.8 µM (active); in assay [8], 15.6 µM (active); at Bcl-2-related protein A1, > 20 µM (inactive).

In the case of `CC(C)(C)c1cc2cccnc2n1Cc1ccccc1`, the AC50 was 0.501 µM (inconclusive) at Cytochrome P450 2D6 and 15.8 µM (inconclusive) on Cytochrome P450 3A4. The EC50 in assay [9] is 2.11 µM (active).

As to `COc1cccc(O)c1CN1CCCC(C(=O)c2cccc(C(F)(F)F)c2)C1` (stereo not given), the IC50 in assay [10] was 11.5 µM (not active). For the same molecule, the EC50 in [9] was 2.11 µM (active).

As for `CNC(=O)c1ccsc1NC(=O)C1CCCN1S(=O)(=O)c1cccs1` (stereo not given), the values for the IC50 (in assay [7]; in [8]; on Bcl-2-related protein A1) were > 20 µM (inactive), 19.3 µM (active) and > 20 µM (inactive), respectively.

In the case of `CC(=O)Nc1ccc(NC(=O)CCC(=O)OCC(=O)c2cccc([N+](=O)[O-])c2)cc1`, the EC50 at Beta-galactosidase is > 40 µM (inactive). Moreover, the IC50 in assay [11] was 26 µM (not active).

`O=C(Nc1nnc(SCc2ccc(F)cc2)s1)c1cnccn1`: the EC50 on Beta-galactosidase was > 40 µM (inactive). Also, in assay [11], the IC50 is on record as > 40 µM (not active).

On to `CC(C)(C)c1ccc(-c2noc(CCC(=O)O)n2)cc1`, for which, in the assay on HEK293, the IC50 is > 80 µM (inactive).

Regarding `CCOC(=O)c1c(C)c2c(n1C)CCC/C2=N\O`, the IC50 in [7] is 8.75 µM (active); in assay [8], 19.5 µM (active); on Bcl-2-related protein A1, > 20 µM (inactive).
